16 compounds from PubChem BioAssay (NCI) can be followed below.

Structures are written as SMILES.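 96-well plates; 48 h exposure; 5 concentrations. Endpoints by linear interpolation between flanking doses. Not reached: highest tested concentration assigned. GI50 is the concentration that inhibits growth by half. TGI marks complete inhibition of growth.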 A value given as a limit tells only on which side of the number the result lay.

Some test systems named below: SF-295 CNS; CAKI-1 renal; SK-MEL-5 melanoma; OVCAR-4 ovarian; SK-MEL-28 melanoma; MALME-3M melanoma; RPMI-8226 leukemia; UACC-257 melanoma.
Common to all, as to assay: inhibition of tumour cell growth, NCI panel, 48 h

Turning to `O=C1OCC(C(=O)c2cccc(O)c2)C1=O` (stereo not drawn), the TGI with SF-295 CNS, in the experiment with CAKI-1 renal, in the experiment on SK-MEL-5 melanoma, with OVCAR-4 ovarian, in the experiment with SK-MEL-28 melanoma and in the experiment with MALME-3M melanoma was above 100 µM each time. For the same compound, the TGI in the experiment on RPMI-8226 leukemia and with UACC-257 melanoma was above 100 µM throughout.
Take `O=C(O)c1cc(Cl)cc(NC(=O)C(Cl)Cl)c1Cl`: the TGI in the experiment on SF-295 CNS, in the experiment with CAKI-1 renal, in the experiment with SK-MEL-5 melanoma, in the experiment with OVCAR-4 ovarian, with SK-MEL-28 melanoma and with MALME-3M melanoma was above 100 µM each time. Further, the TGI in the experiment on RPMI-8226 leukemia and with UACC-257 melanoma was above 100 µM each time.
`O=C1c2ccccc2-c2cc3ccccc3c(=O)n21`: the TGI with SF-295 CNS, with SK-MEL-5 melanoma, with SK-MEL-28 melanoma, in the experiment on RPMI-8226 leukemia and in the experiment on UACC-257 melanoma was above 100 µM in each case.
Consider `COC(=O)C(CC=O)C(=O)C(=O)Nc1cccc(C(F)(F)F)c1` (stereo not drawn), for which the TGI in the experiment on SF-295 CNS, in the experiment on CAKI-1 renal, in the experiment with SK-MEL-5 melanoma, with OVCAR-4 ovarian, in the experiment with SK-MEL-28 melanoma and in the experiment on MALME-3M melanoma was above 100 µM in each case. In addition, the TGI in the experiment on RPMI-8226 leukemia and with UACC-257 melanoma was above 100 µM throughout.
For `c1ccc(SCCCC(Sc2ccccc2)Sc2ccccc2)cc1`, the TGI in the experiment on SF-295 CNS, with CAKI-1 renal, in the experiment on SK-MEL-5 melanoma, in the experiment on OVCAR-4 ovarian, in the experiment with SK-MEL-28 melanoma and in the experiment on RPMI-8226 leukemia was above 100 µM throughout. In the experiment with UACC-257 melanoma, this compound returned a TGI above 100 µM.
Take `Clc1ccc2c(Cl)ncnc2c1`: the TGI in the experiment with SF-295 CNS, with CAKI-1 renal, in the experiment on SK-MEL-5 melanoma, in the experiment on OVCAR-4 ovarian, in the experiment with SK-MEL-28 melanoma and with MALME-3M melanoma was above 100 µM each time. The TGI in the experiment with RPMI-8226 leukemia and in the experiment on UACC-257 melanoma was above 100 µM each time.
As for `CC(=O)[CH-]C(=O)c1ccccc1.CC(=O)[CH-]C(=O)c1ccccc1.[O]=[U+2]=[O]`, the GI50 with SF-295 CNS was 6.55 µM; in the experiment with CAKI-1 renal, 39.2 µM; in the experiment on SK-MEL-5 melanoma, 26.8 µM; with OVCAR-4 ovarian, 40.3 µM; in the experiment on SK-MEL-28 melanoma, 36.2 µM; in the experiment on MALME-3M melanoma, 21.8 µM. Besides, the GI50 was 40.7 µM in the experiment on RPMI-8226 leukemia and 34.3 µM in the experiment with UACC-257 melanoma. In addition, the TGI in the experiment on SF-295 CNS is above 100 µM; with CAKI-1 renal, above 100 µM; with SK-MEL-5 melanoma, above 100 µM; in the experiment on OVCAR-4 ovarian it was above 100 µM; with SK-MEL-28 melanoma, above 100 µM; with MALME-3M melanoma, 54.6 µM. Also, the TGI with RPMI-8226 leukemia and in the experiment with UACC-257 melanoma was above 100 µM in each case.
In the case of `COC(=O)C12CC(C3CC31)C1CC12` (stereo not drawn), the TGI with SF-295 CNS, with CAKI-1 renal, in the experiment with SK-MEL-5 melanoma, in the experiment on OVCAR-4 ovarian, with SK-MEL-28 melanoma and in the experiment on MALME-3M melanoma was above 100 µM each time. Besides, the TGI with RPMI-8226 leukemia and in the experiment with UACC-257 melanoma was above 100 µM in each case.
Turning to `CC(C)OP(=O)(CP(=O)(OC(C)C)OC(C)C)OC(C)C.[CH3][Sn]([Br])([Br])[Br]`, the GI50 in the experiment with SF-295 CNS, with CAKI-1 renal, in the experiment with SK-MEL-5 melanoma, in the experiment with SK-MEL-28 melanoma, with MALME-3M melanoma and in the experiment with RPMI-8226 leukemia was above 100 µM throughout. In addition, the GI50 with UACC-257 melanoma is above 100 µM. The TGI in the experiment on SF-295 CNS, in the experiment with CAKI-1 renal, in the experiment with SK-MEL-5 melanoma, in the experiment on SK-MEL-28 melanoma, in the experiment with MALME-3M melanoma and with RPMI-8226 leukemia was above 100 µM throughout. The compound also displayed a TGI in the experiment with UACC-257 melanoma above 100 µM.
Turning to `CC1OC(=O)N(CCCC=C2SCCCS2)C1=O` (stereo not drawn), the TGI in the experiment on SF-295 CNS, with OVCAR-4 ovarian, with SK-MEL-28 melanoma, with MALME-3M melanoma, in the experiment on RPMI-8226 leukemia and in the experiment on UACC-257 melanoma was above 100 µM each time.
As to `COC(=O)/C(C#N)=C1\N=NNN1CCCN1CCOCC1`, the TGI in the experiment on SF-295 CNS, in the experiment with CAKI-1 renal, in the experiment on SK-MEL-5 melanoma, in the experiment with SK-MEL-28 melanoma, in the experiment on MALME-3M melanoma and in the experiment on RPMI-8226 leukemia was above 100 µM each time. In the experiment on UACC-257 melanoma, this compound displayed a TGI above 100 µM.
As to `O=c1[nH]c(=O)n(C2CC(O)C(CO)O2)cc1C#Cc1ccc(C(F)(F)F)cc1` (stereo not drawn), the TGI in the experiment on SF-295 CNS, in the experiment on SK-MEL-5 melanoma, in the experiment with OVCAR-4 ovarian, with SK-MEL-28 melanoma, in the experiment on MALME-3M melanoma and with RPMI-8226 leukemia was above 100 µM throughout. Also, the TGI in the experiment on UACC-257 melanoma was above 100 µM.
Regarding `CN1CC2(CCCCC2)C(O)C12C=CCCC2` (stereo not drawn), the TGI with SF-295 CNS, in the experiment with CAKI-1 renal, in the experiment with SK-MEL-5 melanoma, with SK-MEL-28 melanoma, with MALME-3M melanoma and in the experiment on RPMI-8226 leukemia was above 100 µM in each case. For the same compound, the TGI with UACC-257 melanoma is above 100 µM.
Take `CCOC(=O)CCC1(C(=O)OC)CCCC1=O` (stereo not drawn): the TGI in the experiment on SF-295 CNS, with SK-MEL-5 melanoma, with SK-MEL-28 melanoma, with MALME-3M melanoma, in the experiment with RPMI-8226 leukemia and with UACC-257 melanoma was above 100 µM throughout.
For the compound `CC1=C(C#N)C(N)=C2C(C)=C(C#N)C(N)=C12`, the TGI in the experiment with SF-295 CNS, with CAKI-1 renal, in the experiment on SK-MEL-5 melanoma, in the experiment with OVCAR-4 ovarian, in the experiment on MALME-3M melanoma and with RPMI-8226 leukemia was above 100 µM each time. The compound also registered a TGI with UACC-257 melanoma above 100 µM.
Regarding `CCC1OCCN1C(C)C` (stereo not drawn), the TGI was above 100 µM with SF-295 CNS; above 100 µM with SK-MEL-5 melanoma; 92.2 µM in the experiment with SK-MEL-28 melanoma; above 100 µM with MALME-3M melanoma; above 100 µM with RPMI-8226 leukemia; above 100 µM in the experiment with UACC-257 melanoma.
